According to patent US10987349B2, “Antitumor agent and bromodomain inhibitor” (FUJIFILM Corporation, priority 2016, dated 2021):

Experiments:
MOLT-3 = assay: Cell growth test (Cell Titer Blue) MOLT-3; type: cell-based; details: Homo sapiens, 72 h, MOLT-3, Acute lymphoblastic leukemia, 3 days
Experimental: (§1) Moreover, the compound of Example 14 was subjected to a cell growth test using various types of cell lines.
(§2) All cell lines other than the below-noticed cells were each seeded in a well plate, in which an RPMI-1640 medium supplemented with penicillin/streptomycin and FBS with a final concentration of 10% was placed. The human prostate cancer cell line VCaP (ATCC) was seeded in a well plate, in which DMEM medium supplemented with penicillin/streptomycin and FBS with a final concentration of 10% was placed. […] Thereafter, using Enspire Multimode Plate Reader (PerkinElmer), the amount of fluorescence at an excitation wavelength of 531 nm and a fluorescence wavelength of 615 nm was measured. Since the amount of fluorescence is in proportion to the concentration of a florescent product resorufin that is converted from resazurin as a redox dye by living cells, the amount of fluorescence was used as an indicator of the number of living cells. The growth inhibition percentage of the test compound in each concentration was calculated according to the following equation. Growth inhibition percentage (%)=(amount of fluorescence in test compound−added well)/(amount of fluorescence in DMSO−added well)×100 […]

U-937 = assay: Cell growth test (Cell Titer Blue) U-937; type: cell-based; details: Homo sapiens, 72 h, U-937, Lymphoma, 3 days
Experimental: as §1, §2

WSU-DLCL2 = assay: Cell growth test (Cell Titer Blue) WSU-DLCL2; type: cell-based; details: Homo sapiens, WSUDLCL2, 72 h, WSU-DLCL2, Lymphoma, 3 days
Experimental: as §1, §2

Daudi = assay: Cell growth test (Cell Titer Blue) Daudi; type: cell-based; details: Homo sapiens, 72 h, Lymphoma, 3 days
Experimental: as §1, §2

[1] = test system: human lymphoma cell line OCI-Ly7; assay: Cell growth test (Cell Titer Blue) OCI-LY7; type: cell-based; details: 72 h, 3 days
Experimental: as §1, §2

SU-DHL-1 = assay: Cell growth test (Cell Titer Blue) SU-DHL-1; type: cell-based; details: Homo sapiens, 72 h, SU-DHL-1, Lymphoma, 3 days
Experimental: as §1, §2

MDA-MB-468 = assay: Cell growth test (Cell Titer Blue) MDA-MB-468; type: cell-based; details: Homo sapiens, 72 h, MDA-MB-468, Breast cancer, 3 days
Experimental: as §1, §2

BxPC-3 = assay: Cell growth test (Cell Titer Blue) BxPC-3; type: cell-based; details: Homo sapiens, 72 h, BxPC-3, Pancreatic cancer, 3 days
Experimental: as §1, §2

PANC-1 = assay: Cell growth test (Cell Titer Blue) PANC-1; type: cell-based; details: Homo sapiens, 72 h, PANC-1, Pancreatic cancer, 3 days
Experimental: as §1, §2

DU-145 = assay: Cell growth test (Cell Titer Blue) DU-145; type: cell-based; details: Homo sapiens, 72 h, DU-145, Prostate cancer, 3 days
Experimental: as §1, §2

Saos-2 = assay: Cell growth test (Cell Titer Blue) Saos-2; type: cell-based; details: Homo sapiens, 72 h, Saos-2, Sarcoma, 3 days
Experimental: as §1, §2

c-Myc gene = assay: Expression of c-Myc gene in MV4-11 cells, RT-PCR; type: cell-based, human; details: MV4-11 cells, 10, 30 or 100 nmol/L, 6 hours
Experimental: A fluctuation in the expression of c-Myc, IL-7R and HEXIM1 genes in MV4-11 (ATCC) cells treated with the test compound was analyzed according to a reverse transcription polymerase chain reaction (RT-PCR) method.
MV4-11 cells were cultured for 6 hours in an RPMI-1640 medium supplemented with penicillin/streptomycin and FBS with a final concentration of 10%, to which the compound of Example 14 was added to a concentration of 10 nmol/L, 30 nmol/L or 100 nmol/L. On the other hand, a non-treatment group (Non-treatment) was established by culturing MV4-11 cells for 6 hours in the above-described medium, to which the compound of Example 14 was not added. Using Rneasy (registered trademark) (Qiagen), RNA was extracted from the above-described MV4-11 cells in accordance with the instruction manual included with the aforementioned device. […] Thereafter, a PCR reaction was carried out for 40 cycles (a cycle consisting of 95° C.-5 seconds and 60° C.-30 seconds.) Subsequently, the obtained reaction product was measured.
As a housekeeping gene, the expression level of GAPDH (Glyceraldehyde 3-phosphate dehydrogenase) was also evaluated. The ratio of the expression level of the mRNA of each of c-Myc, IL-7R and HEXIM1 to the expression level of GAPDH was calculated, and the expression level of each gene (relative expression level) was then quantified. […]

Compound: CCn1c(=O)cc(C2CCN(C)CC2)c2cc(C(=O)N(C)c3ccc(C)cc3)ccc21 [Example 14, 1-Ethyl-N-methyl-N-(4-methylphenyl)-4-(1-methylpiperidin-4-yl)-2-oxo-1,2-dihydroquinoline-6-carboxamide]
- GI50 (MOLT-3): 317 nM
- GI50 (U-937): 286 nM
- GI50 (WSU-DLCL2): 91 nM
- GI50 (Daudi): 165 nM
- GI50 [1]: 274 nM
- GI50 (SU-DHL-1): 1260 nM
- GI50 (MDA-MB-468): 1200 nM
- GI50 (BxPC-3): 2550 nM
- GI50 (PANC-1): 2980 nM
- GI50 (DU-145): 1430 nM
- GI50 (Saos-2): 2620 nM
- mRNA expression of c-Myc (GAPDH correction) (c-Myc gene): decreased in a compound concentration-dependent manner
